Data published in paper PMC4890880 (ACS infectious diseases, 2016).
Read-outs that look alike come from different tables or passages of the source.

Assays:
HepG2-A16-CD81EGFP cells = conditions: human, 50 uM
[1] = tested on: Plasmodium berghei (Pb-Luc) exoerythrocytic-stage parasites; assay: microbe, parasite or virus in culture
[2] = read-out: Inhibition% @ 50 uM rep1
[3] = read-out: Inhibition% @ 50 uM rep2

| SMILES | HepG2 Tox% @ 50 uM rep1 (HepG2-A16-CD81EGFP cells) [%] | inhibition at 50 µM [1, 2] [%] | inhibition at 50 µM [1, 3] [%] | HepG2 Tox% @ 50 uM rep2 (HepG2-A16-CD81EGFP cells) [%] |
| --- | --- | --- | --- | --- |
| O=C1c2ccc3c4c(ccc(c24)C(=O)N1CCCCO)C(=O)N(CCCCO)C3=O [MMV009085] | 102 | 103 | 104 |  |
| OC(CNCc1ccccc1)Cn1c2ccccc2c2ccccc21 (stereo not shown) [MMV000839] | 99 | 101 | 100 |  |
| N=c1n(CCN2CCCCC2)c2ccccc2n1CC(O)c1cccc(Br)c1 (stereo not shown) [MMV665902] | 101 | 104 | 105 | 102 |
| OC(CNC1CCCCC1)Cn1c2ccc(I)cc2c2cc(I)ccc21 (stereo not shown) [MMV665882] | 100 | 103 | 104 |  |
| CCOC(=O)c1cnc2ccc(OC)cc2c1NCc1ccccc1 [MMV665813] | 102 | 103 | 104 |  |
| FC(F)(F)c1cccc(CNC2CCN(CCc3ccccc3)CC2)c1 [MMV665979] | 99 | 101 | 99 | 99 |
| COc1ccc(CNC2CCN(c3ccc(NC(=O)c4cccc(Cl)c4)cc3)CC2)cc1OC [MMV666067] | 98 | 102 | 99 | 99 |
| COc1ccc(C=C2SC(Nc3ccc(F)cc3)=NC2=O)c(OC)c1 [MMV084434] | 100 | 103 | 104 |  |
| COc1cc(-c2nc(-c3ccccc3)c(-c3ccccc3)[nH]2)cc(OC)c1O [MMV020750] | 102 | 103 | 104 |  |
| CCCCCn1c(=N)n(CC(O)COc2cccc(C)c2)c2ccccc21 (stereo not shown) [MMV000444] | 100 | 102 | 103 |  |
| CCCCC(O)(c1ccc(Cl)cc1)C(CN1CCOCC1)c1ccc(Cl)cc1 (stereo not shown) [MMV000619] | 97 | 99 | 100 |  |
| CCOC(=O)c1cnc2ccc(Cl)cc2c1NCCCN(C)C [MMV006882] | 99 | 99 | 102 |  |
| CN(C)CCNc1cc(-c2ccccc2)nc2ccccc12 [MMV006704] | 96 | 95 | 97 |  |
| COc1ccc(C(=O)Nc2ccc3nc(N4CCCCC4)cc(C)c3c2)cc1OC [MMV019758] | 101 | 104 | 104 | 101 |
